Data as given in patent US5612329A (priority 1995, dated 1997).

Tests used:
cancer cell lines = conditions: cited from earlier work
[1] = tested on: prostatic carcinoma cells; conditions: cited from earlier work
polyamine transporter = conditions: vs longer polyamines such as spermine and spermidine; cited from earlier work
CCRF-CEN cells = assay: In vitro cytotoxicity / cell growth inhibition, leukemia; type: cell-based; conditions: Homo sapiens, 48 hr, read-out: log10 G150 (converted)
Description: (§1) The anti-proliferative activities of the aziridinylpolyamines obtained in Synthesis Examples 1-4 were assessed by determining log10 G150 values against human cancer cell lines using the screening strategy described by Boyd et al, Drug Devel. Res. 34:91-109 (1995).
(§2) More specifically, the compounds were tested at a minimum of five concentrations at 10-fold dilutions using a 48 hr continuous exposure protocol. Each cell line shown in Table 1 below was inoculated onto microtiter plates. After a pre-incubation period of 24-48 hr at 37° C., the test compounds were added, and the culture was incubated for an additional 48 hr at 37° C. Cell viability or cell growth end-point determinations were performed by fixation of the cells, followed by staining with sulforhodamine B (Monks et al, J. Natl. Cancer Inst., 83:757-766 (1991)).

K-562 cells = assay: as above; type: cell-based; conditions: Homo sapiens, K562; K-562, leukemia, 48 hr; read-out: log10 G150 (converted)
Description: as §1, §2

MOLT-4 cells = assay: as above; type: cell-based; conditions: Homo sapiens; MOLT-4, leukemia, 48 hr; read-out: log10 G150 (converted)
Description: as §1, §2

RPMI-8226 cells = assay: as above; type: cell-based; conditions: Homo sapiens; RPMI-8226, leukemia, 48 hr; read-out: log10 G150 (converted)
Description: as §1, §2

SR cells = assay: as above; type: cell-based; conditions: Homo sapiens, 48 hr, read-out: log10 G150 (converted)
Description: as §1, §2

HL-60 (TB) cells = assay: cells; type: cell-based; conditions: Homo sapiens, leukemia, 48 hr, read-out: log10 G150 (converted)
A549/ATCC cells = assay: In vitro cytotoxicity / cell growth inhibition, non-small cell lung cancer; type: cell-based; conditions: Homo sapiens, 48 hr, read-out: log10 G150 (converted)
Description: as §1, §2

EKVX cells = assay: as above; type: cell-based; conditions: Homo sapiens, 48 hr, read-out: log10 G150 (converted)
Description: as §1, §2

HOP-62 cells = assay: as above; type: cell-based; conditions: Homo sapiens; HOP-62, non-small cell lung cancer, 48 hr; read-out: log10 G150 (converted)
Description: as §1, §2

HOP-92 cells = assay: as above; type: cell-based; conditions: Homo sapiens; HOP-92, non-small cell lung cancer, 48 hr; read-out: log10 G150 (converted)
Description: as §1, §2

NCl-H226 cells = assay: as above; type: cell-based; conditions: Homo sapiens, 48 hr, read-out: log10 G150 (converted)
Description: as §1, §2

NCl-H23 cells = assay: as above; type: cell-based; conditions: Homo sapiens, 48 hr, read-out: log10 G150 (converted)
Description: as §1, §2

NCl-H322M cells = assay: as above; type: cell-based; conditions: Homo sapiens, 48 hr, read-out: log10 G150 (converted)
Description: as §1, §2

NCl-H460 cells = assay: as above; type: cell-based; conditions: Homo sapiens, 48 hr, read-out: log10 G150 (converted)
Description: as §1, §2

NCl-H522 cells = assay: as above; type: cell-based; conditions: Homo sapiens, 48 hr, read-out: log10 G150 (converted)
Description: as §1, §2

COLO 205 cells = assay: In vitro cytotoxicity / cell growth inhibition, colon cancer; type: cell-based; conditions: Homo sapiens; COLO 205, colon cancer, 48 hr; read-out: log10 G150 (converted)
Description: as §1, §2

HCC-2998 cells = assay: as above; type: cell-based; conditions: Homo sapiens; HCC-2998, colon cancer, 48 hr; read-out: log10 G150 (converted)
Description: as §1, §2

HCT-116 cells = assay: as above; type: cell-based; conditions: Homo sapiens; HCT-116, colon cancer, 48 hr; read-out: log10 G150 (converted)
Description: as §1, §2

HCT-15 cells = assay: as above; type: cell-based; conditions: Homo sapiens; HCT-15, colon cancer, 48 hr; read-out: log10 G150 (converted)
Description: as §1, §2

HT29 cells = assay: as above; type: cell-based; conditions: Homo sapiens, HT-29, 48 hr, read-out: log10 G150 (converted)
Description: as §1, §2

KM12 cells = assay: as above; type: cell-based; conditions: Homo sapiens, 48 hr, read-out: log10 G150 (converted)
Description: as §1, §2

SW-620 cells = assay: as above; type: cell-based; conditions: Homo sapiens; SW-620, colon cancer, 48 hr; read-out: log10 G150 (converted)
Description: as §1, §2

SF-268 cells = assay: In vitro cytotoxicity / cell growth inhibition, CNS cancer; type: cell-based; conditions: Homo sapiens; SF-268, CNS cancer, 48 hr; read-out: log10 G150 (converted)
Description: as §1, §2

SF-295 cells = assay: as above; type: cell-based; conditions: Homo sapiens; SF-295, CNS cancer, 48 hr; read-out: log10 G150 (converted)
Description: as §1, §2

SF-539 cells = assay: as above; type: cell-based; conditions: Homo sapiens; SF-539, CNS cancer, 48 hr; read-out: log10 G150 (converted)
Description: as §1, §2

SNB-19 cells = assay: as above; type: cell-based; conditions: Homo sapiens; SNB-19, CNS cancer, 48 hr; read-out: log10 G150 (converted)
Description: as §1, §2

SNB-75 cells = assay: as above; type: cell-based; conditions: Homo sapiens; SNB-75, CNS cancer, 48 hr; read-out: log10 G150 (converted)
Description: as §1, §2

U251 cells = assay: as above; type: cell-based; conditions: Homo sapiens, U-251, 48 hr, read-out: log10 G150 (converted)
Description: as §1, §2

786-0 cells = assay: In vitro cytotoxicity / cell growth inhibition, renal cancer; type: cell-based; conditions: Homo sapiens; 786-0, renal cancer, 48 hr; read-out: log10 G150 (converted)
Description: as §1, §2

A498 cells = assay: as above; type: cell-based; conditions: Homo sapiens, 48 hr, read-out: log10 G150 (converted)
Description: as §1, §2

ACHN cells = assay: as above; type: cell-based; conditions: Homo sapiens, 48 hr, read-out: log10 G150 (converted)
Description: as §1, §2

CAKI-1 cells = assay: as above; type: cell-based; conditions: Homo sapiens; CAKI-1, renal cancer, 48 hr; read-out: log10 G150 (converted)
Description: as §1, §2

RXF-393 cells = assay: as above; type: cell-based; conditions: Homo sapiens; RXF-393, renal cancer, 48 hr; read-out: log10 G150 (converted)
Description: as §1, §2

SN12C cells = assay: as above; type: cell-based; conditions: Homo sapiens, 48 hr, read-out: log10 G150 (converted)
Description: as §1, §2

TK-10 cells = assay: as above; type: cell-based; conditions: Homo sapiens; TK-10, renal cancer, 48 hr; read-out: log10 G150 (converted)
Description: as §1, §2

UO-31 cells = assay: as above; type: cell-based; conditions: Homo sapiens; UO-31, renal cancer, 48 hr; read-out: log10 G150 (converted)
Description: as §1, §2

DNA = conditions: compared with chlorambucil per se; cited from earlier work
[2] = relative to level predicted from in vitro studies; cited from earlier work
cells = conditions: suggested by the biological activity profile; cited from earlier work

Structure (SMILES)	GI50 (CCRF-CEN cells)	GI50 (K-562 cells)	GI50 (MOLT-4 cells)	GI50 (RPMI-8226 cells)	GI50 (SR cells)	GI50 (HL-60 (TB) cells)	GI50 (A549/ATCC cells)	GI50 (EKVX cells)	GI50 (HOP-62 cells)	GI50 (HOP-92 cells)	GI50 (NCl-H226 cells)	GI50 (NCl-H23 cells)	GI50 (NCl-H322M cells)	GI50 (NCl-H460 cells)	GI50 (NCl-H522 cells)	GI50 (COLO 205 cells)	GI50 (HCC-2998 cells)	GI50 (HCT-116 cells)	GI50 (HCT-15 cells)	GI50 (HT29 cells)	other results
NCCCCNCCCN1CC1 [N-(3-aziridinylpropyl)-1,4-diaminobutane]																					cytotoxicity against a variety of cancer cell lines (cancer cell lines): cytotoxic against a variety of cancer cell lines in submicromolar concentrations
NCCCCN1CC1 [N-(4-aminobutyl)aziridine]																					cytotoxicity against prostatic carcinoma cells [1]: cytotoxic against prostatic carcinoma cells; effectiveness as substrate for the polyamine transporter (polyamine transporter): less effective as a substrate for the polyamine transporter than the longer polyamines
NCCCNCCCCN1CC1 [N-(4-aziridinylbutyl)-1,3-diaminopropane]																					cytotoxicity against a variety of cancer cell lines (cancer cell lines): cytotoxic against a variety of cancer cell lines in submicromolar concentrations
C(CNCCCN1CC1)CNCCCN1CC1 [Synthesis Example 2, 1,11-Diaziridinyl-4,8-diazaundecane]	3.72 µM	19.5 µM	3.09 µM	22.4 µM	3.09 µM	2.69 µM	13.2 µM	25.1 µM	6.31 µM	11.2 µM	18.6 µM	10.7 µM	36.3 µM	2.95 µM	11.2 µM	13.2 µM	20.4 µM	19.5 µM	21.9 µM	18.6 µM	GI50 (KM12 cells): 19.5 µM; GI50 (SW-620 cells): 26.3 µM; GI50 (SF-268 cells): 10.7 µM; GI50 (SF-295 cells): 14.5 µM; GI50 (SF-539 cells): 11.2 µM; GI50 (SNB-19 cells): 18.2 µM; GI50 (SNB-75 cells): 3.98 µM; GI50 (U251 cells): 6.92 µM; GI50 (786-0 cells): 3.39 µM; GI50 (A498 cells): 28.2 µM; GI50 (ACHN cells): 3.89 µM; GI50 (CAKI-1 cells): 4.07 µM; GI50 (RXF-393 cells): 3.89 µM; GI50 (SN12C cells): 6.76 µM; GI50 (TK-10 cells): 14.5 µM; GI50 (UO-31 cells): 17 µM
CC(CCNCCCCNCCC(C)N1CC1)N1CC1 (stereo not shown) [Synthesis Example 3, 2,13-Diaziridinyl-5,10-diazatetradecane]	4.79 µM	21.4 µM	3.24 µM	27.5 µM	3.63 µM	3.31 µM	29.5 µM	30.9 µM	30.9 µM	19.1 µM	23.4 µM	13.2 µM	63.1 µM	6.17 µM	12.6 µM	14.8 µM	55 µM	26.3 µM	41.7 µM	20 µM	GI50 (KM12 cells): 81.3 µM; GI50 (SW-620 cells): 22.4 µM; GI50 (SF-268 cells): 14.5 µM; GI50 (SF-295 cells): 24 µM; GI50 (SF-539 cells): 6.31 µM; GI50 (SNB-19 cells): 26.3 µM; GI50 (SNB-75 cells): 3.39 µM; GI50 (U251 cells): 15.8 µM; GI50 (786-0 cells): 3.8 µM; GI50 (A498 cells): 69.2 µM; GI50 (ACHN cells): 5.75 µM; GI50 (CAKI-1 cells): 5.01 µM; GI50 (RXF-393 cells): 15.1 µM; GI50 (SN12C cells): 9.55 µM; GI50 (TK-10 cells): > 100 µM; GI50 (UO-31 cells): 35.5 µM
CC1CN1CCCNCCCCNCCCN1CC1C (stereo not shown) [Synthesis Example 4, 1,12-Di-(2-methyl-1-aziridinyl)-4,9-diazadodecane]	3.98 µM	29.5 µM	2.95 µM	31.6 µM	4.9 µM	2.95 µM	18.2 µM	32.4 µM	10.7 µM	14.5 µM	19.1 µM	8.71 µM	91.2 µM	9.12 µM	7.24 µM	10 µM	19.1 µM	20.9 µM	> 100 µM	20.4 µM	GI50 (KM12 cells): 64.6 µM; GI50 (SW-620 cells): 41.7 µM; GI50 (SF-268 cells): 20.4 µM; GI50 (SF-295 cells): 47.9 µM; GI50 (SF-539 cells): 12.9 µM; GI50 (SNB-19 cells): 25.7 µM; GI50 (SNB-75 cells): 2.34 µM; GI50 (U251 cells): 13.2 µM; GI50 (786-0 cells): 4.47 µM; GI50 (A498 cells): > 100 µM; GI50 (ACHN cells): 19.1 µM; GI50 (CAKI-1 cells): 3.47 µM; GI50 (RXF-393 cells): 11 µM; GI50 (SN12C cells): 9.77 µM; GI50 (TK-10 cells): 11.7 µM; GI50 (UO-31 cells): 17.4 µM
NCCCCN(CCCN)CCCNC(=O)CCCc1ccc(N(CCCl)CCCl)cc1 [chlorambucil-spermidine conjugate]																					production of DNA cross-links (DNA): highly efficient at producing DNA cross-links compared with chlorambucil per se; in vivo potency [2]: in vivo potency does not reach the level predicted from in vitro studies; uptake by cells (cells): not taken up well by cells
